# Values of other authors in article PMC7899551, “Phase 1 study of Z-endoxifen in patients with advanced gynecologic, desmoid, and hormone receptor-positive solid tumors” (Oncotarget, 2021).
# Tested on: ER+ metastatic breast cancer
# Parameters: method as in PMID 28854070
# Conditions: cited from earlier work
smiles,measurement,setting,value
CC/C(=C(\c1ccc(O)cc1)c1ccc(OCCNC)cc1)c1ccccc1 [Z-endoxifen],Plasma concentration on day 1,"160 mg dose, 38 patients with ER+ metastatic breast cancer",333 ng/mL
same,overall CBR,"previous trial, highest dose 160 mg/day",26.3%
